Source: patent publication US6784153B1, “Methods of homing molecules to lung using membrane dipeptidase” (The Burnham Institute, priority 1998, dated 2004)

Experiments:
ovary = assay: in vivo panning of X7 library, ovary; set-up: species or system mice; conditions: for ovary/brain enrichment ratio: OVARY section, ovary as compared to brain; for % OF MOTIF AMONG ALL CLONES: OVARY, of 40 clones sequenced; for enrichment in ovary as compared to brain: mouse, in vivo
Description: (§1) Following various in vivo panning screens, hundreds of thousands to millions of phage expressing homing peptides were recovered from the respective organ or tissue. Generally, the phage collected from a round of in vivo panning were plated on agar, about 250 to 300 clones were selected, grown in 5 ml cultures, then pooled and readministered for a subsequent round of in vivo panning (“regular method”). However, in some experiments, 1000 clones were selected, grown in 2 ml cultures, then pooled and administered for a subsequent round of screening; or the entire agar plate was scraped and all of the phage were cultured together and administered for a subsequent round of screening. The peptide inserts of various isolated phage were determined such that, of the millions of phage that homed, only a small number of sequences were identified.
Also provided are ovary homing peptides such as RVGLVAR (SEQ ID NO: 11) and EVRSRLS (SEQ ID NO: 10), which were identified by injection of an X7 (SEQ ID NO: 29) library into mice (Table 8). The peptides were isolated by the regular method.
(§2) Organ samples were washed 3 times with ice cold DMEM-PI containing 1% bovine serum albumin (BSA), then directly incubated with 1 ml K91-kan bacteria for 1 hr. Ten ml NZY medium containing 0.2 μg/ml tetracycline (NZY/tet) was added to the bacterial culture, the mixture was incubated in a 37° C. shaker for 1 hr, then 200 μl aliquots were plated in agar plates containing 40 μg/ml tetracycline (tet/agar).
(§3) Approximately 250 to 300 individual bacterial colonies containing phage recovered from the various organs or tissues were grown for 16 hr in 5 ml NZY/tet. In some experiments, approximately 1000 individual bacteria containing phage were picked and the phage were amplified in 2 ml of NZY/tet or the entire plate containing phage was scraped, pooled and grown in bulk and processed for injection. Where phage were cultured separately, the cultures were pooled and the phage were injected into mice or rats as described above for a second round of in vivo panning. In some experiments, a third or fourth round of panning was performed. Phage DNA was purified from individual bacterial colonies obtained and the DNA sequences encoding the peptides expressed by selected phage were determined (see Koivunen et al., supra, 1994b).

gut = assay: in vivo panning of X7 library, gut; set-up: species or system mice; conditions: for gut/brain enrichment ratio: GUT section, gut as compared to brain; for % OF MOTIF AMONG ALL CLONES: GUT, of 40 clones sequenced
Description: as §1
The invention also provides gut homing peptides such as YSGKWGK (SEQ ID NO: 9) and YSGKWGW (SEQ ID NO: 156), which were identified by injection of an X7 (SEQ ID NO: 29) library into mice (Tables 1 and 4) and differ only in the last amino acid position. The peptides were isolated by the regular method. The gut homing peptide YSGKWGK (SEQ ID NO: 9) was present in 22% of 40 clones sequenced and was enriched 30-fold in gut as compared to brain (Table 1). In addition, gut homing peptides such as QVRRVPE (SEQ ID NO: 155) and VRRGSPQ (SEQ ID NO: 164), which share a VRR motif, were identified, as were the peptides VRRGSPQ (SEQ ID NO: 164), GGRGSWE (SEQ ID NO: 167) and FRVRGSP (SEQ ID NO: 169), which share an RGS motif.
as §2, §3

skin = assay: in vivo homing of phage displaying peptides to skin; set-up: species or system mice
Description: For in vivo panning of skin, two month old BALB/c nude mice were used to avoid contamination by hair. The mice were injected intravenously with phage as described above and, after perfusion through the heart, the skin was removed in large sections and placed on an ice cold plate with the hypodermis facing up. The skin was scraped with a scalpel to remove mostly hypodermis, which was then processed for phage recovery as described below.
as §3
in After two or three rounds of in vivo panning of mice injected with a cyclic CX3CX3CX3C (SEQ ID NO: 25) phage display library, the peptide sequence CVALCREACGEGC (SEQ ID NO: 3), which appeared repeatedly in skin, was identified (Table 1). To determine the specificity of skin homing of the sequence CVALCREACGEGC (SEQ ID NO: 3), phage displaying the peptide was amplified individually, diluted to the same input titer and administered to mice. Following administration, control kidney and brain organ were removed and the number of TU of phage in skin, kidney and brain was determined.
Peptides that were identified more than one time during screening are indicated by an asterisk. For example, 14% of recovered CX3CX3CX3C (SEQ ID NO: 25) phage that homed to head skin had the sequence CVDVCCDGCPVCC (SEQ ID NO: 437). Phage having the sequence RVPLSGDVEH (SEQ ID NO: 438), LRVMSFTSGQ (SEQ ID NO: 439), or RFSVGSLFGS (SEQ ID NO: 440) each constituted 14% of recovered CX10C (SEQ ID NO: 30) phage that homed to head skin.

retina = assay: in vivo homing of phage displaying peptides to retina, coinjected with control phage fdAMPLAY88; set-up: species or system rats; conditions: for enrichment in retina: injected individually with control fdAMPLAY88 phage; for enrichment in retina compared to control fdAMPLAY88 phage: rat, in vivo
Description: For in vivo panning of retina, two month old female Simonson Albino rats were used to provide larger tissue samples than mice. The rats were anesthetized with phenobarbital (50 mg/kg body weight), and, while under deep anesthesia, the abdominal cavity of the rats was opened and 10^10 TU of a phage library was injected into the left ventricle of the heart through the diaphragm. After 2-5 minutes of phage circulation, the eyes were removed, then washed once in 70% EtOH and once in PBS. The anterior chamber, with cornea and lens, was removed and the retina was peeled from the remaining posterior chamber. The tissue was weighed, homogenized with a syringe bulb in 1 ml of ice cold DMEM containing protease inhibitors (1 mM PMSF, 20 μg/ml aprotinin and 1 μg/ml of leupeptin; all from SIGMA; St. Louis Mo.). The tissue was washed 3 times with 1 ml of DMEM and the phage were rescued as described below.
as §3
Rats injected with a cyclic CX7C (SEQ ID NO: 24) phage display library were subjected to in vivo panning and, after three rounds, the peptide sequences CSCFRDVCC (SEQ ID NO: 5) and CRDVVSVIC (SEQ ID NO: 6) were identified in retina. Because of small tissue sample size, the phage isolated could not be accurately quantitated. Thus, the selectivity of phage displaying the peptides was determined by individually amplifying the phage displaying the sequence and administering the phage to rats with a control phage fdAMPLAY88. This fd-ampicillin phage is similar to fd-tetracycline (fuse 5-based) in that it has the same infectivity.
Rats were injected with an equal amount of the CSCFRDVCC (SEQ ID NO: 5) or CRDVVSVIC (SEQ ID NO: 6) and the fdAMPLAY88 phage. Following administration, homing to retina was evaluated by comparing the number of TU of the selected phage on tetracycline plates and fdAMPLAY88 on ampicillin plates recovered from retina.

prostate = assay: in vivo panning of X7 library, prostate; set-up: species or system mice; conditions: for % OF MOTIF AMONG ALL CLONES: PROSTATE; for prostate/brain homing ratio: PROSTATE section, prostate as compared to brain; for enrichment in homing to prostate as compared to brain: mouse, in vivo
Description: as §1
The invention also provides prostate homing peptides such as SMSIARL (SEQ ID NO: 21) and VSFLEYR (SEQ ID NO: 22), which were identified by injection of an X7 (SEQ ID NO: 29) library into mice (Table 7). The peptides were isolated by the regular method.
as §2, §3

lung = assay: in vivo homing of phage displaying peptides to lung; set-up: species or system mice; conditions: for % OF MOTIF AMONG ALL CLONES: LUNG; for LUNG/BRAIN RATIO: LUNG section; for enriched in lung over unselected phage: individually amplified phage, FIG. 2; for enrichment in lung as compared to unselected phage: mouse, in vivo
Description: For lung and pancreas, a mixture of phage libraries containing 10^10 TU was diluted in 200 μl DMEM and injected into the tail vein of anesthetized BALB/c mice (2 month old; Harlan Sprague Dawley; San Diego Calif.); AVERTIN (0.017 ml/g) was used as anesthetic (Pasqualini and Ruoslahti, supra, 1996). After 1-4 minutes, mice were snap frozen in liquid nitrogen or, after about 5 minutes of phage circulation, the mice were perfused through the heart with 5-10 ml of DMEM (SIGMA; St. Louis Mo.). To recover the phage, the organs from the perfused mice or partially thawed organs from snap frozen mice were collected and weighed, then were homogenized in 1 ml DMEM-PI (DMEM containing protease inhibitors (PI); phenylmethyl sulfonyl fluoride (PMSF; 1 mM), aprotinin (20 μg/ml), leupeptin (1 μg/ml)).
as §2, §3
After two or three rounds of in vivo panning of mice injected with a cyclic CX3CX3CX3C (SEQ ID NO: 25) or a cyclic CX6C (SEQ ID NO: 26) phage display library, four peptides that homed to lung were identified.
To determine the specificity of lung homing of the individual peptides identified, phage displaying the peptides were amplified individually, diluted to the same input titer and administered to mice. Following administration, control kidney and brain organ was removed and the number of TU of phage in lung, kidney and brain was determined. The results shown in FIG. 2 reveal that 10× and 35× more phage having the peptide sequence CGFECVRQCPERC (SEQ ID NO: 1; GFE-1) bound to lung than to kidney and brain, respectively. […] The lung homing peptides CGFECVRQCPERC (SEQ ID NO: 1; GFE-1), CGFELETC (SEQ ID NO: 2; GFE-2), CTLRDRNC (SEQ ID NO: 15) and CIGEVEVC (SEQ ID NO: 16) are enriched in lung at 35×, 9×, 6× and 5×, respectively, over unselected phage (see FIG. 2).

## EVRSRLS [peptide from phage recovered from ovary]
ovary
  ovary/brain enrichment ratio: 3
  % OF MOTIF AMONG ALL CLONES: 22%
  enrichment in ovary as compared to brain: 3 fold

## YSGKWGK [gut homing peptide]
gut
  gut/brain enrichment ratio: 30
  % OF MOTIF AMONG ALL CLONES: 22%
gut; mouse, in vivo
  enriched in gut as compared to brain: 30 fold

## CSSGCSKNCLEMC [peptide from phage recovered from skin]
skin; SKIN section
  skin/brain phage ratio: 2

## CSCFRDVCC [retina homing peptide]
retina
  enrichment in retina: 3 fold
  enrichment in retina compared to control fdAMPLAY88 phage: 3 ×

## LRVMSFTSGQ [peptide from phage recovered from skin]
skin; head skin
  % of recovered CX10C phage that homed to head skin: 14%

## SMSIARL [peptide from phage recovered from prostate]
prostate
  % OF MOTIF AMONG ALL CLONES: 6%
  prostate/brain homing ratio: 34
  enrichment in homing to prostate as compared to brain: 34 fold

## VSFLEYR [peptide from phage recovered from prostate]
prostate
  % OF MOTIF AMONG ALL CLONES: 6%
  prostate/brain homing ratio: 17
  enrichment in homing to prostate as compared to brain: 17 fold

## GISALVLS
gut
  % OF MOTIF AMONG ALL CLONES: 11%

## CGKRYRNC
lung
  % OF MOTIF AMONG ALL CLONES: 5%
  LUNG/BRAIN RATIO: 5

## CERVVGSSC [peptide from phage recovered from lung]
lung
  % OF MOTIF AMONG ALL CLONES: 9%
  LUNG/BRAIN RATIO: 4

## CRPWHNQAHTEC [peptide from phage recovered from lung]
lung
  % OF MOTIF AMONG ALL CLONES: 14%
  LUNG/BRAIN RATIO: 5

## RVGLVAR [peptide from phage recovered from ovary]
ovary
  ovary/brain enrichment ratio: 5
  % OF MOTIF AMONG ALL CLONES: 22%
  enrichment in ovary as compared to brain: 5 fold

## CTLRDRNC [lung homing peptide]
lung
  % OF MOTIF AMONG ALL CLONES: 10%
  LUNG/BRAIN RATIO: 8
  enriched in lung over unselected phage: 6 ×
  enrichment in lung as compared to unselected phage: 8 fold

## CGATCEMQCPSGC [peptide from phage recovered from skin]
skin; tail skin
  % of recovered CX3CX3CX3C phage, homing to tail skin: 12%

## RGRWLAL [peptide from phage recovered from prostate]
prostate
  % OF MOTIF AMONG ALL CLONES: 6%

## RVPLSGDVEH [peptide from phage recovered from skin]
skin; head skin
  % of recovered CX10C phage that homed to head skin: 14%

## CTVNEAYKTRMC [peptide from phage recovered from lung]
lung
  % OF MOTIF AMONG ALL CLONES: 22%
  LUNG/BRAIN RATIO: 3

## CKWSRLHSC [peptide from phage recovered from lung]
lung
  % OF MOTIF AMONG ALL CLONES: 11%
  LUNG/BRAIN RATIO: 3

## RFSVGSLFGS [peptide from phage recovered from skin]
skin; head skin
  % of recovered CX10C phage that homed to head skin: 14%

## CIGEVEVC [peptide from phage recovered from lung]
lung
  % OF MOTIF AMONG ALL CLONES: 5%
  LUNG/BRAIN RATIO: 6
  enriched in lung over unselected phage: 5 ×
  enrichment in lung as compared to unselected phage: 6 fold

## CLRPYLNC [peptide from phage recovered from lung]
lung
  % OF MOTIF AMONG ALL CLONES: 10%
  LUNG/BRAIN RATIO: 6

## SRRQPLS [peptide from phage recovered from gut]
gut
  gut/brain enrichment ratio: 2
  % OF MOTIF AMONG ALL CLONES: 11%

## CWRGDRKIC [peptide from phage recovered from lung]
lung
  % OF MOTIF AMONG ALL CLONES: 8%
  LUNG/BRAIN RATIO: 2

## MSPQLAT [peptide from phage recovered from gut]
gut
  % OF MOTIF AMONG ALL CLONES: 11%

## CVDVCCDGCPVCC [peptide from phage recovered from skin]
skin; head skin
  % of recovered CX3CX3CX3C phage that homed to head skin: 14%

## CRDVVSVIC [retina homing peptide]
retina
  enrichment in retina: 2 fold
  enrichment in retina compared to control fdAMPLAY88 phage: 2 ×

## CLAKENVVC [peptide from phage recovered from lung]
lung
  % OF MOTIF AMONG ALL CLONES: 13%
  LUNG/BRAIN RATIO: 2

## CRLRSYGTLSLC [peptide from phage recovered from lung]
lung
  % OF MOTIF AMONG ALL CLONES: 5%
  LUNG/BRAIN RATIO: 0.4
